US20050244472A1, “Intraocular drug delivery systems containing excipients with reduced toxicity and related methods” (Allergan, Inc., priority 2004, published 2005)
“And” between values parts separate entries of the source, which are not always exact repeats. Equal values may be shown once. Read-outs that look alike come from different tables or passages of the source. Each block holds one substance with its values, some of them ahead of it.

Key:
[1] = Osmolarity of excipient-containing incubating solutions; format: physicochemical
Method: Osmolarity was measured using osmometer type 13/13DR from Roebling (Berlin, GR).
(§1) For each concentration of tested compound, pH and osmolarity parameters were measured.

[2] = tested on: ARPE-19 cells; test: MTT cell viability assay (mitochondrial dehydrogenase activity) after exposure to excipient
Text: Cell viability and cell morphology were examined to evaluate the toxicity of excipients on retinal pigment epithelial cells. The human retina cell line used in these experiments is the ARPE-19 cell line (human adult-derived retinal pigmented epithelial cells). […] They form tight-junctions with transepithelial resistance of monolayers (Dunn K C et al., supra). From a molecular standpoint, it appears that ARPE-19 express a huge pattern of genes similar to those expressed by human RPE from fresh explant which could account for their physiological function (Klimanskaya I. et al., “Derivation and comparative assessment of retinal pigment epithelium from human embryonic stem cells using transcriptomics”, Cloning and Stem Cells, 2004, 6(3):217-45).
ARPE-19 cells are widely used as a retinal model that resemble physiological properties of RPE cells. Similar methods of culturing ARPE-19 cells and cytotoxicity assays can be found in Yeung et al., “Cytotoxicity of triamcinolone on cultured human retinal pigment epithelial cells: comparison with dexamethasone and hydrocortisone”, Jpn J. Ophthalmol, 2004; 48:236-242. Cell viability and cell morphology were examined using conventional colormetric and visual methods. Viability and morphology measurements were obtained at 24 hours, 48 hours, and 72 hours after exposure to an excipient composition.
To assess cell viability, mitochondrial metabolism was quantified through conventional colorometric assays (i.e., the MTT assay). This colorimetric assay utilizes 3-(4,5-dimethylthiazol-2-yl)-2,5-diphenyltetrazolium bromide (MTT) and correlates mitochondrial metabolism and cell viability through measurement of dehydrogenase activity which converts a substrate into crystal. More specifically, the assay measures the activity of living cells through mitochondrial dehydrogenases. When dissolved in culture cell medium, MTT solution appears dark orange. Mitochondrial dehydrogenases of viable cells degrade MTT by cleaving the tetrazolium ring yielding to formation of a purple formazan crystal, which is insoluble in water. Crystals are subsequently dissolved in isopropanol solution. A resulting purple solution is spectrophotometrically measured. Cell viability is relative to amount of formazan and calculated as a percentage of remaining treated compared to non-treated cells.
Results from the MTT assay were expressed as a percentage of cell viability calculated using the following equation: % cell viability=ODtest/ODcontrol×100.
For each experiment, one concentration was performed in triplicate. Each point was spectrophotometrically read twice. Average of readings was calculated, then average from these 3 values was determined.
After 3 experiments were independently completed under the same conditions, a graph was plotted with cell viability expressed as a function of concentration (dose response) and for various incubation period (time course). The IC50 was then estimated based on the graphed data.
More specifically, cell density in 24-multiwell plates was observed on the day of the experiment to check if confluence of the cells was reached. Aliquots of MTT concentrated solutions were removed from a freezer at −20° C. and thawed at room temperature. Cell medium was warmed at 37° C. before use. Appropriated tubes for diluting compounds were prepared. Higher concentrations of each excipient agent was prepared. Serial dilution was then performed in cell medium (DMEM:F12+10% FBS).
Cell culture medium in the 24-well plate was removed using vacuum-pump. Cells were then stimulated with 0.5 ml final volume for each concentration of one given excipient agent. Distribution of the excipient-containing solution was performed using automated pipet-aid in sterile environment (under PSM) or not depending on time of compounds and duration of incubation.
After stimulation, cells were replaced in a CO2 incubator for the required time of exposure.

[3] = pH of excipient-containing incubating solutions; format: physicochemical
Method: as §1

[4] = tested on: ARPE-19 cells; format: cell-based; design: key to Cell Morphology score, Mean: 5 = basal (wild type) to 1 = lethal phenotype
Method: Cell morphology was visualized using light microscopy. Cell morphology observation using light microscopy permits determination of (i) cell number and density and (ii) whether or not cells in contact with an excipient agent display modified phenotype compared to a non-treated population of cells.
Cell morphology was analyzed in parallel by semi-quantitative scoring ranging from 5 to 1, from basal to lethal phenotype respectively, as shown in FIG. 23.
More specifically, cells were removed from an incubator for examination. Morphological shape of cells was visualized using a light microscope and CCD camera. Every 3 wells of a given concentration was observed through image analysis software. Then, a representative photograph describing the average appearance of cells was saved. The supernatant was either, kept for further predefined experiments to perform, or removed using vacuum-pump.
Resulting semi-quantitative scoring is represented as a function of time course and dose response. Score 5: wild type phenotype of non-treated cells, 100% confluent adherent cells. This phenotype very much vary following post-seeding time. For example, at confluence ARPE-19 cells at 1 day appear well defined with visible outer membrane and dark grey cytoplasm. After 3 days of confluence, limits between cells become less visible and cells adopt a more hexagonal shape and constitute an epithelium-like uniform dense structure. Score 4: density<100%. Cell shape has changed, some spaces are present between cells, few cells possibly detached. Score 3: […]. Spaces are sometimes present among cells, areas appears confluent while in others, cells detached. General cell shape starts showing non negligible alterations. Score 2: Cell density<50%. Cells adopt exclusively stressed appearance, presence of mass dead floating cells. Score 1: Cell density<10%. Presence of almost exclusively dead cells.
Based on quotation, each condition of the applied compound was given a score which allow to a morphology evolution profile to be prepared, ie. cell morphology as a function of compound concentration and time of exposure. […]

[5] = 0.1% excipient dilution in culture medium
[6] = 0.5% excipient dilution in culture medium
[7] = 1% excipient dilution in culture medium
[8] = 5% excipient dilution in culture medium
[9] = 10% excipient dilution in culture medium
[10] = 20% excipient dilution in culture medium
[11] = 0.01% excipient dilution in culture medium
[12] = 0.02% excipient dilution in culture medium
[13] = 0.04% excipient dilution in culture medium
[14] = 0.06% excipient dilution in culture medium
[15] = 0.08% excipient dilution in culture medium

mOsm [1, 5]: 309 mOsm
mOsm [1, 6]: 317 mOsm
mOsm [1, 7]: 325 mOsm
mOsm [1, 8]: 375 mOsm
mOsm [1, 9]: 459 mOsm
mOsm [1, 10]: 635 mOsm
pH [3, 5]: 7.6
pH [3, 6]: 7.6
pH [3, 7]: 7.5
pH [3, 8]: 7.5
pH [3, 9]: 7.5
pH [3, 10]: 7.6
Substance: hydroxypropyl beta-cyclodextrin [Kleptose]
cell survival ([2]; 5% (w/v), 24 hour time point): about 20%

Substance: hydroxypropyl gamma-cyclodextrin [Cavasol]
effect on both cell parameters (viability and morphology) [2]: no measurable effect
percentage of living cells ([2]; 0.05 to 10%, recovery after 24 h): > 80%
reduction of cell survival ([2]; 0.1% (w/v), 24 hour, 48 hour and 72 hour time points): ≤ 10%
IC50 (50% cell viability inhibition) ([2]; deduced from viability graphs, incubation 24-72 h): not possible to determine the IC50

Substance: hydroxypropylmethyl cellulose [HPMC]
diminution of cell viability [2]: 20-40%
percentage of cell viability [2]: 60-80%

Substance: poloxamer 407nf
increase in cell viability up to [2]: up to 200%

mOsm [1, 11]: 310 mOsm
mOsm [1, 12]: 307 mOsm
mOsm [1, 13]: 313 mOsm
mOsm [1, 14]: 346 mOsm
mOsm [1, 15]: 390 mOsm
mOsm [1, 5]: 523 mOsm
pH [3, 11]: 7.5
pH [3, 12]: 7.6
pH [3, 13]: 7.5
pH [3, 14]: 7.5
pH [3, 15]: 7.5
pH [3, 5]: 7.6
Substance: polysorbate 80
overall cytotoxicity to ARPE-19 cells (conclusion in words) [2]: barely tolerated
cell survival ([2]; 0.1% (w/v)): substantially zero
Cell Morphology score ([4]; 0.01% Tween80, 24 Hours): 4 (Score 4: density<100%)
Cell Morphology score, Mean ([4]; 0.01% Tween80, 24 Hours): 4.0
Cell Morphology score ([4]; 0.01% Tween80, 48 Hours): 4 (Score 4: density<100%)
Cell Morphology score, Mean ([4]; 0.01% Tween80, 48 Hours): 4.0
Cell Morphology score ([4]; 0.01% Tween80, 72 Hours): 4 (Score 4: density<100%)
Cell Morphology score, Mean ([4]; 0.01% Tween80, 72 Hours): 4.0
Cell Morphology score ([4]; 0.02% Tween80, 24 Hours): 3 (Score 3: 80%<Cell density<40%) and 4 (Score 4: density<100%)
Cell Morphology score, Mean ([4]; 0.02% Tween80, 24 Hours): 3.3
Cell Morphology score ([4]; 0.02% Tween80, 48 Hours): 3 (Score 3: 80%<Cell density<40%) and 4 (Score 4: density<100%)
Cell Morphology score, Mean ([4]; 0.02% Tween80, 48 Hours): 3.3
Cell Morphology score ([4]; 0.02% Tween80, 72 Hours): 3 (Score 3: 80%<Cell density<40%) and 4 (Score 4: density<100%)
Cell Morphology score, Mean ([4]; 0.02% Tween80, 72 Hours): 3.7
Cell Morphology score ([4]; 0.04% Tween80, 24 Hours): 3 (Score 3: 80%<Cell density<40%) and 4 (Score 4: density<100%)
Cell Morphology score, Mean ([4]; 0.04% Tween80, 24 Hours): 3.3
Cell Morphology score ([4]; 0.04% Tween80, 48 Hours): 3 (Score 3: 80%<Cell density<40%)
Cell Morphology score, Mean ([4]; 0.04% Tween80, 48 Hours): 3.0
Cell Morphology score ([4]; 0.04% Tween80, 72 Hours): 3 (Score 3: 80%<Cell density<40%)
Cell Morphology score, Mean ([4]; 0.04% Tween80, 72 Hours): 3.0
Cell Morphology score ([4]; 0.06% Tween80, 24 Hours): 3 (Score 3: 80%<Cell density<40%)
Cell Morphology score, Mean ([4]; 0.06% Tween80, 24 Hours): 3.0
Cell Morphology score ([4]; 0.06% Tween80, 48 Hours): 3 (Score 3: 80%<Cell density<40%)
Cell Morphology score, Mean ([4]; 0.06% Tween80, 48 Hours): 3.0
Cell Morphology score ([4]; 0.06% Tween80, 72 Hours): 3 (Score 3: 80%<Cell density<40%)
Cell Morphology score, Mean ([4]; 0.06% Tween80, 72 Hours): 3.0
Cell Morphology score ([4]; 0.08% Tween80, 24 Hours): 2 (Score 2: Cell density<50%) and 3 (Score 3: 80%<Cell density<40%)
Cell Morphology score, Mean ([4]; 0.08% Tween80, 24 Hours): 2.3
Cell Morphology score ([4]; 0.08% Tween80, 48 Hours): 2 (Score 2: Cell density<50%) and 1 (Score 1: Cell density<10%)
Cell Morphology score, Mean ([4]; 0.08% Tween80, 48 Hours): 1.7
Cell Morphology score ([4]; 0.08% Tween80, 72 Hours): 1 (Score 1: Cell density<10%)
Cell Morphology score, Mean ([4]; 0.08% Tween80, 72 Hours): 1.0
cells floating in a typical round dead shape ([4]; 0.1%): over 95%
Cell Morphology score ([4]; 0.1% Tween80, 24 Hours): 1 (Score 1: Cell density<10%)
Cell Morphology score, Mean ([4]; 0.1% Tween80, 24 Hours): 1.0
Cell Morphology score ([4]; 0.1% Tween80, 48 Hours): 1 (Score 1: Cell density<10%)
Cell Morphology score, Mean ([4]; 0.1% Tween80, 48 Hours): 1.0
Cell Morphology score ([4]; 0.1% Tween80, 72 Hours): 1 (Score 1: Cell density<10%)
Cell Morphology score, Mean ([4]; 0.1% Tween80, 72 Hours): 1.0
Morphology limit concentration (%) ([4]; ARPE-19 cells, Table 3 summary): 0.06%
critical limit for lethality (injured cell aspect) ([4]; morphology): 0.06%

Substance: sodium carboxymethylcellulose [CMC]
percentage of cell viability [2]: 80-100%

mOsm [1, 5]: 310 mOsm
mOsm [1, 6]: 318 mOsm
mOsm [1, 7]: 333 mOsm
mOsm [1, 8]: 408 mOsm
mOsm [1, 9]: 518 mOsm
mOsm [1, 10]: 710 mOsm
pH [3, 5]: 7.6
pH [3, 6]: 7.6
pH [3, 7]: 7.6
pH [3, 8]: 7.6
pH [3, 9]: 7.7
pH [3, 10]: 7.7
Substance: sulfobutyl ether 4 beta-cyclodextrin [Captisol]
Cell Viability, Mean (%) [2]: 40%
overall cytotoxicity to ARPE-19 cells (conclusion in words) [2]: mild cytotoxicity
